# Results reported in ChEMBL document CHEMBL1201862, “PubChem BioAssay data set” (2004).
#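 The compound was tested at five concentrations on cells cultured in 96-well plates, with a 48-hour exposure period. GI50 = concentration required for 50% inhibition of growth.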 Calls of active or inactive are those of the source. Rule as the data show it: active = GI50 up to about 1.1 µM and inactive = higher.
# Tests used:
# Test in all cases: NCI tumour cell line growth inhibition, 48 h
# [1] = tested on: NCI-H522
# [2] = tested on: CAKI-1
# [3] = tested on: SNB-19
# [4] = tested on: SF-295
# [5] = tested on: K562
# [6] = tested on: SN12C
# [7] = tested on: UACC-257
# [8] = tested on: HCC 2998
# [9] = tested on: HCT-15
# [10] = tested on: RXF 393
# [11] = tested on: CCRF-CEM
# [12] = tested on: OVCAR-5
# [13] = tested on: OVCAR-8
# [14] = tested on: U-251
# [15] = tested on: SK-OV-3
# [16] = tested on: UO-31
# [17] = tested on: LOX IMVI
# [18] = tested on: Malme-3M
Compound,GI50 [1],GI50 [2],GI50 [3],GI50 [4],GI50 [5],GI50 [6],GI50 [7],GI50 [8],GI50 [9] [µM],GI50 [10],GI50 [11],GI50 [12],GI50 [13],GI50 [14],GI50 [15],GI50 [16],GI50 [17],GI50 [18]
O=S(O)CCCSSc1ccccc1,18.3 µM (inactive),27 µM (inactive),96.8 µM (inactive),53.2 µM (inactive),38.1 µM (inactive),25.6 µM (inactive),40.2 µM (inactive),76.9 µM (inactive),35.5,22.9 µM (inactive),7.67 µM (inactive),> 100 µM (inactive),26.5 µM (inactive),26.4 µM (inactive),99.3 µM (inactive),19.8 µM (inactive),29.3 µM (inactive),67 µM (inactive)
O=C(Cc1ccccc1)NN1C(=O)C(Cl)C1c1ccccc1Cl (centres undefined),13.2 µM (inactive),> 60.3 µM (inactive),> 100 µM (inactive),99.8 µM (inactive),33.7 µM (inactive),> 75.9 µM (inactive),> 70.6 µM (inactive),> 100 µM (inactive),> 92.9,48.8 µM (inactive),14.1 µM (inactive),> 100 µM (inactive),> 74 µM (inactive),44.1 µM (inactive),> 100 µM (inactive),> 100 µM (inactive),24.3 µM (inactive),> 100 µM (inactive)
O=C1CCC(=O)c2sccc2N1,> 100 µM (inactive),> 100 µM (inactive),> 100 µM (inactive),> 100 µM (inactive),> 100 µM (inactive),> 100 µM (inactive),> 100 µM (inactive),> 100 µM (inactive),> 100,> 100 µM (inactive),> 100 µM (inactive),> 100 µM (inactive),> 100 µM (inactive),> 100 µM (inactive),> 100 µM (inactive),> 100 µM (inactive),> 100 µM (inactive),> 100 µM (inactive)
COc1ccc2c(c1)C=C(C(C)(C)C)NS2(=O)=O,> 100 µM (inactive),> 100 µM (inactive),> 100 µM (inactive),> 100 µM (inactive),> 100 µM (inactive),> 100 µM (inactive),> 100 µM (inactive),> 100 µM (inactive),> 100,> 100 µM (inactive),> 100 µM (inactive),> 100 µM (inactive),> 100 µM (inactive),> 100 µM (inactive),> 100 µM (inactive),> 100 µM (inactive),> 100 µM (inactive),> 100 µM (inactive)
O=C(N/C(=C\c1ccccc1O)c1nc2ccccc2[nH]1)c1ccccc1,45.2 µM (inactive),> 100 µM (inactive),39.7 µM (inactive),,> 100 µM (inactive),89.7 µM (inactive),> 100 µM (inactive),> 100 µM (inactive),> 100,> 100 µM (inactive),> 100 µM (inactive),> 100 µM (inactive),66.1 µM (inactive),> 100 µM (inactive),36.1 µM (inactive),> 100 µM (inactive),42.1 µM (inactive),> 100 µM (inactive)
N#CC(C#N)C(c1ccccc1)c1ccccc1,> 100 µM (inactive),> 100 µM (inactive),> 100 µM (inactive),> 100 µM (inactive),91 µM (inactive),> 100 µM (inactive),> 100 µM (inactive),> 100 µM (inactive),> 100,> 100 µM (inactive),> 100 µM (inactive),> 100 µM (inactive),> 100 µM (inactive),> 100 µM (inactive),> 100 µM (inactive),> 100 µM (inactive),> 100 µM (inactive),> 100 µM (inactive)
Cc1cc(NCCCCCCNc2cc(C)nc3ccc(Cl)cc23)c2cc(Cl)ccc2n1,17 µM (inactive),33 µM (inactive),25.9 µM (inactive),16.6 µM (inactive),2.49 µM (inactive),22 µM (inactive),20 µM (inactive),16.4 µM (inactive),18,16.1 µM (inactive),3.63 µM (inactive),19.7 µM (inactive),18.5 µM (inactive),16.9 µM (inactive),> 100 µM (inactive),23.5 µM (inactive),14.9 µM (inactive),28.1 µM (inactive)
CCN(CC)C(=O)COc1ccc(Br)cc1Br,50.1 µM (inactive),> 100 µM (inactive),> 100 µM (inactive),> 100 µM (inactive),> 100 µM (inactive),> 100 µM (inactive),> 100 µM (inactive),> 100 µM (inactive),> 100,> 100 µM (inactive),> 100 µM (inactive),> 100 µM (inactive),,> 100 µM (inactive),> 100 µM (inactive),> 100 µM (inactive),> 100 µM (inactive),> 100 µM (inactive)
COC(=O)C(C(=O)C(=O)Nc1ccc(C)cc1)c1nc2ccc([N+](=O)[O-])cc2nc1O (centres undefined),6.93 µM (inactive),> 100 µM (inactive),> 100 µM (inactive),> 100 µM (inactive),30.1 µM (inactive),> 100 µM (inactive),> 100 µM (inactive),> 100 µM (inactive),> 100,> 100 µM (inactive),36.1 µM (inactive),> 100 µM (inactive),> 100 µM (inactive),37.6 µM (inactive),> 100 µM (inactive),66.1 µM (inactive),> 100 µM (inactive),> 100 µM (inactive)
N#CCc1ccc(C(C#N)/C(CCCC(=O)Nc2cccc([N+](=O)[O-])c2)=N/NC(N)=S)cc1 (centres undefined),27.9 µM (inactive),> 100 µM (inactive),76 µM (inactive),> 100 µM (inactive),81.7 µM (inactive),> 100 µM (inactive),> 100 µM (inactive),> 100 µM (inactive),> 100,> 100 µM (inactive),51.6 µM (inactive),> 100 µM (inactive),,> 100 µM (inactive),> 100 µM (inactive),> 100 µM (inactive),63.1 µM (inactive),> 100 µM (inactive)
CCOc1ccc(NC(=O)C2=C(C)NC(C)=C(C(=O)Nc3ccc(OCC)cc3)C2c2ccccc2)cc1,38.3 µM (inactive),> 100 µM (inactive),> 100 µM (inactive),> 100 µM (inactive),38.5 µM (inactive),> 100 µM (inactive),> 100 µM (inactive),> 100 µM (inactive),,> 100 µM (inactive),31.3 µM (inactive),> 100 µM (inactive),> 100 µM (inactive),> 100 µM (inactive),> 100 µM (inactive),29.2 µM (inactive),> 100 µM (inactive),> 100 µM (inactive)
Nc1ncnc2c1nnn2C1C=C(CO)C(O)C1O (centres undefined),> 100 µM (inactive),74 µM (inactive),> 100 µM (inactive),> 100 µM (inactive),40.8 µM (inactive),33 µM (inactive),> 100 µM (inactive),22.5 µM (inactive),26.6,> 77.1 µM (inactive),50.7 µM (inactive),48.3 µM (inactive),39.4 µM (inactive),> 100 µM (inactive),> 100 µM (inactive),42.5 µM (inactive),38.6 µM (inactive),> 100 µM (inactive)
CCOC(=O)C1=NC(c2ccccc2)(c2ccccc2)OC1=C(Cl)Cl,23.1 µM (inactive),> 100 µM (inactive),> 100 µM (inactive),> 100 µM (inactive),32 µM (inactive),> 100 µM (inactive),32.4 µM (inactive),18.5 µM (inactive),70.1,0.879 µM (active),33.6 µM (inactive),96.2 µM (inactive),> 100 µM (inactive),74.6 µM (inactive),> 100 µM (inactive),65 µM (inactive),46 µM (inactive),40 µM (inactive)
O=C(C(=O)c1ccc(Cc2ccc(C(=O)C(=O)c3ccccc3)cc2)cc1)c1ccccc1,> 100 µM (inactive),> 100 µM (inactive),> 100 µM (inactive),> 100 µM (inactive),> 100 µM (inactive),> 100 µM (inactive),> 100 µM (inactive),> 100 µM (inactive),> 100,> 100 µM (inactive),61.5 µM (inactive),> 100 µM (inactive),> 100 µM (inactive),> 100 µM (inactive),> 100 µM (inactive),> 100 µM (inactive),> 100 µM (inactive),> 100 µM (inactive)
CC1(C)COC(c2cccc3c2C(=O)c2cccc(Cl)c2-3)=N1,31.8 µM (inactive),55 µM (inactive),21.1 µM (inactive),48.4 µM (inactive),33.7 µM (inactive),74 µM (inactive),33.7 µM (inactive),29.7 µM (inactive),56.4,22.7 µM (inactive),43 µM (inactive),> 100 µM (inactive),38.4 µM (inactive),68.4 µM (inactive),48.8 µM (inactive),27.1 µM (inactive),51.9 µM (inactive),84.7 µM (inactive)
CCCc1c(C(=O)OCC)[nH]c(C(=O)CCC(=O)c2[nH]c(C(=O)OCC)c(CCC)c2C(=O)OCC)c1C(=O)OCC,> 100 µM (inactive),> 100 µM (inactive),> 100 µM (inactive),> 100 µM (inactive),> 100 µM (inactive),> 100 µM (inactive),> 100 µM (inactive),> 100 µM (inactive),> 100,70.5 µM (inactive),> 100 µM (inactive),> 100 µM (inactive),> 100 µM (inactive),> 100 µM (inactive),> 100 µM (inactive),> 100 µM (inactive),> 100 µM (inactive),> 100 µM (inactive)
